We go through 17 molecules from US8933070B2, “Methods of targeting PTEN mutant diseases and compositions therefor” (University Health Network, priority 2010, dated 2015).

One assay has as its target T1, Aurora A (Homo sapiens, UniProt O14965).
T1 construct: purchased Invitrogen PV3612
T1 sequence (O14965 1-403): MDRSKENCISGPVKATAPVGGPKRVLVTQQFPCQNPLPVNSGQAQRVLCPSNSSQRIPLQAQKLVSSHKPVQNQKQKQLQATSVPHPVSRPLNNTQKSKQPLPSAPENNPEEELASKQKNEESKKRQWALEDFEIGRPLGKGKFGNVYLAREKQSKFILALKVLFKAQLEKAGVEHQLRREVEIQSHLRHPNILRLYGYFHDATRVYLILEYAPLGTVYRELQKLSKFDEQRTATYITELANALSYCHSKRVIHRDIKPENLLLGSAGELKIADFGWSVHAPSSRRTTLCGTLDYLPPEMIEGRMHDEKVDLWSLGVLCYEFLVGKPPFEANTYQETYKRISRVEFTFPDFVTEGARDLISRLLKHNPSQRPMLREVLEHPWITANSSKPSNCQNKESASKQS
Put plainly: Aurora A inhibition assay (Z-Lyte). In kind it is biochemical. As to conditions: for inhibition at 10 µM: dose of 10 μM, read-out: Aurora A relative inhibition percentage. As to the method:
Aurora A inhibition was determined using the Z-Lyte assay kit from Invitrogen. The assay was performed using the recommended manufacturer's instructions with 20 nM ATP and 12 nM Aurora A (Invitrogen cat #PV3612). The % inhibition values were determined according to the manufacturer's directions and IC50 values were obtained using a non-linear 4 point logistic curve fit (XLfit4, IDBS)

A further assay has as its system AMPKalpha. Put plainly: Kinase selectivity assay (CEREP, HTRF). In kind it is biochemical, human. As to the method:
The inhibitory activity of selected compounds was evaluated against a panel of 45 different kinase enzymes by CEREP, France. The assays were performed using standard HTRF assay methods as documented by CEREP against the human orthologues of Abl kinase, Akt1/PKBa, AMPKa, BMX kinase (Etk), Brk, CaMK2a, CaMK4, CDC2/CDK1 (cycB), CHK1, CHK2, c-Met kinase, CSK, EphB4 kinase, ERK1, ERK2 (P42mapk), FGFR2 kinase, FGFR4 kinase, FLT-1 kinase (VEGFR1), FLT-3 kinase, Fyn kinase, IGF1R kinase, IRK (InsR), JNK 2, KDR kinase (VEGFR2), Lck kinase, Lyn kinase, MAPKAPK2, MEK1/MAP2K1, p38a kinase, p38d kinase, p38g kinase, PDGFRb kinase, PDK1, PKA, PKCa, PKCb1, PKCb2, PKCg, Ret kinase, ROCK2, RSK2, Src kinase, Syk, and TRKA. The % Inhibition was determined by the formula; % Inhibition=100×(1−(experimental value−background value)/(high activity control−background value)).
On the technique in general: Time-resolved FRET reads energy transfer from a long-lived donor to a nearby acceptor.

For a further assay, the target named is FGFR1. Put plainly: Millipore kinase assay (radiolabelled phosphopeptide filter binding), IC50 estimate. In kind it is biochemical. As to conditions: estimated from inhibition at three compound concentrations; ATP at Km; read-out: IC50 value estimates against FGFR1. As to the method: For a number of compounds, IC50 values were estimated against kinases of interest based on Millipore protocols. Kinase assays at Millipore were performed using a radiolabelled phosphopeptide filter binding detection system, in duplicate, at each compound concentration. The ATP substrate concentration in the reactions was at the Km for each enzyme.
To allow for a more direct comparison of compound inhibition, an IC50 value was estimated from the inhibition determined at three compound concentrations. Several assumptions were made to allow this calculation using a 4 parameter non linear curve fit model, including full inhibition set at 100%, no inhibition set to 0%, and a curve fit parameter set at 1. The inflection point was reported as the estimated […].

The next assay addresses T2, PLK1 (Homo sapiens, UniProt P53350).
T2 construct: purchased Invitrogen PV3501
Put plainly: PLK1 inhibition assay (Z-Lyte). In kind it is biochemical. As to conditions: dose of 10 μM; read-out: PLK1 relative inhibition percentage.

A further assay addresses T3, PLK2 (Homo sapiens, UniProt Q9NYY3).
T3 construct: purchased Invitrogen PV4204
The experiment in a line: PLK2 inhibition assay (Z-Lyte). As to conditions: for inhibition at 10 µM: dose of 10 μM, read-out: PLK2 relative inhibition percentage. In kind it is biochemical. Here is the method:
PLK2 inhibition was determined using the Z-Lyte assay kit from Invitrogen (cat# PV3802). The assay was performed using the recommended manufacturer's instructions with 60 μM ATP and 133 nM PLK2 (Invitrogen cat #PV4204). The % inhibition values were determined according to the manufacturer's directions and IC50 values were obtained using a non-linear 4 point logistic curve fit (XLfit4, IDBS)

Another assay has as its target T4, human PLK4 (Homo sapiens, UniProt O00444).
T4 construct: amino terminal GST fusion of residues 1-391 of human PLK4; made in house; host or cells: E. coli
T4 sequence (O00444 1-391): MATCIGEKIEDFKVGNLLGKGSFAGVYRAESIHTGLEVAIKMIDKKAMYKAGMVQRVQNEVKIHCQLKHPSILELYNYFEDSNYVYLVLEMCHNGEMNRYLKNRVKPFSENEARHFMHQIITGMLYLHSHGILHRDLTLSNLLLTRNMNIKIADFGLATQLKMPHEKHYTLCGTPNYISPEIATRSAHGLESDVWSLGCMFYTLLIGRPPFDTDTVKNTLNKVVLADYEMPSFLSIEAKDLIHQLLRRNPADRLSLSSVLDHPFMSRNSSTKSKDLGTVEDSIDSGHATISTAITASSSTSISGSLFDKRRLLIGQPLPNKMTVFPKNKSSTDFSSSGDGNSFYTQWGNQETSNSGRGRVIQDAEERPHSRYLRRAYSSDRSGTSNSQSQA
Put plainly: PLK4 inhibition assay (indirect ELISA). In kind it is biochemical. As to conditions: read-out: IC50 Ranges PLK4. As to the method:
The protein was purified from clarified cell extracts after induction at 15° C. overnight using glutathione sepharose, gel permeation chromatography, and ion exchange (Resource Q). The resulting protein was dephosphorylated with lambda phosphatase (NEB cat# P0753), and resolved from the phosphatase using gluthione sepharose. The dephosphorylated GST-PLK4 was stored in aliquots at −80° C. until use.
PLK4 activity was measured using an indirect ELISA detection system. […] The colourimetric reaction was allowed to continue for 5 minutes, followed by addition of stop solution (0.5 N sulphuric acid), and quantified by detection at 450 nm with either a monochromatic or filter based plate reader (Molecular Devices M5 or Beckman DTX880, respectively).
Compounds were pre-incubated in the presence of enzyme for 15 minutes prior to addition of ATP and the activity remaining quantified using the above described activity assay. […] The IC50 value was determined using a non-linear 4 point logistic curve fit (XLfit4, IDBS) with the formula; (A+(B/(1+((x/C)^D)))), where A=background value, B=range, C=inflection point, D=curve fit parameter.
(In an ELISA, binding on a coated surface is turned into a signal by an enzyme label.)

The subject of assay [1] is A549 lung cancer cell line. The experiment in a line: Cell growth inhibition, Sulforhodamine B (SRB) assay. As to conditions: Homo sapiens, A549, 120 h; 5 days, SRB; read-out: Cell Line GI50 Range A549. The class given is cell-based. As to the method:
(§1) Aliquots (20 μl) from each concentration were overlaid to 80 μl of the pre-seeded cells in the 96-plates to make final concentrations of 10 nM to 50 μM. The cells were cultured for 5 days before the Sulforhodamine B (SRB) assay was performed to determine the compound's cell growth inhibition activity.
(§2) Sulforhodamine B (Sigma, Canada) is a water-soluble dye that binds to the basic amino acids of cellular proteins. Thus, colorimetric measurement of the bound dye provides an estimate of the total protein mass that is related to the cell number. The cells are fixed in situ by gently aspirating off the culture media and adding 50 μl ice cold 10% Trichloroacetic Acid (TCA) per well and incubated at 4° C. for 30-60 min. The plates are washed with water five times and allowed to air dry for 5 min. Addition of 50 μl 0.4% (w/v) SRB solution in 1% (v/v) acetic acid to each well and incubatation for […] at RT completes the staining reaction. Following staining, plates are washed four times with 1% acetic acid to remove unbound dye and then allowed to air dry for 5 min. […] Absorbance is read at 570 nm.
(§3) The percentage (%) of relative growth inhibition was calculated by comparing to DMSO-treated only cells (100%). GI50's were determined for compounds with cytotoxic activity. The GI50 was calculated using GraphPad PRISM software (GraphPad Software, Inc., USA).
A general note: The SRB assay estimates cell density from bound dye.

Assay [2] concerns SW620 colon cancer cell line. The description is as above. As to conditions: Homo sapiens, SW-620, 120 h; 5 days, SRB; read-out: Cell Line GI50 Range SW620. In kind it is cell-based. As to the method:
as §1, §2, §3

Assay [3] relates to human mammary epithelial primary cells (HMEC). The assay is described as above. The class given is cell-based. As to conditions: 120 h, 5 days, SRB, normal primary breast cells, read-out: Cell Line GI50 Range HMEC. As to the method:
as §1, §2, §3

Assay [4] relates to MCF-7 luminal breast cancer cell line. Described as above. The class given is cell-based. As to conditions: Homo sapiens, MCF7, 120 h; 5 days, SRB; read-out: Cell Line GI50 Range MCF-7. Here is the method:
as §1, §2, §3

In assay [5] the test system is MDA-MB-468 basal breast cancer cell line. Described as above. As to conditions: Homo sapiens, MDA-MB-468, 120 h; 5 days, SRB; read-out: Cell Line GI50 Range MDA-MB-468. The class given is cell-based.
For assay [6], the system named is HCC1954 basal breast cancer cell line. Described as above. In kind it is cell-based. As to conditions: Homo sapiens, HCC1954, 120 h; 5 days, SRB; Table 5; read-out: Cell Line GI50 Range HCC1954. As to the method: as §1, §2, §3
The SRB assay described above was used to assay test compounds against the extended panel (Table 6).

The next assay deals with T5, Aurora B (Homo sapiens, UniProt Q96GD4).
T5 construct: purchased Invitrogen PV3970
The experiment in a line: Aurora B inhibition assay (Z-Lyte). In kind it is biochemical. As to conditions: read-out: IC50 Ranges Aurura B. Here is the method:
Aurora B inhibition was determined using the Z-Lyte assay kit from Invitrogen. […] The % inhibition values were determined according to the manufacturer's directions and IC50 values were obtained using a non-linear 4 point logistic curve fit (XLfit4, IDBS).

T5 sequence (Q96GD4 whole entry): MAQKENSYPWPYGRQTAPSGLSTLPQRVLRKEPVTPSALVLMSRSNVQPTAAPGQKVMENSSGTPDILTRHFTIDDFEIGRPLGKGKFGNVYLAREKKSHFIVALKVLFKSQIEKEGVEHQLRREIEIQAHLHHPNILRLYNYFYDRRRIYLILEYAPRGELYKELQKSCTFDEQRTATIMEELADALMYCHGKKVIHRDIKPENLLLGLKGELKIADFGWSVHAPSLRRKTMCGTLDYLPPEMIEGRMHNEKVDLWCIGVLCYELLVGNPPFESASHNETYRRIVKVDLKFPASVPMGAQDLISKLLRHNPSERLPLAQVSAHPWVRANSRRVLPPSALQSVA
T3 sequence (Q9NYY3 whole entry): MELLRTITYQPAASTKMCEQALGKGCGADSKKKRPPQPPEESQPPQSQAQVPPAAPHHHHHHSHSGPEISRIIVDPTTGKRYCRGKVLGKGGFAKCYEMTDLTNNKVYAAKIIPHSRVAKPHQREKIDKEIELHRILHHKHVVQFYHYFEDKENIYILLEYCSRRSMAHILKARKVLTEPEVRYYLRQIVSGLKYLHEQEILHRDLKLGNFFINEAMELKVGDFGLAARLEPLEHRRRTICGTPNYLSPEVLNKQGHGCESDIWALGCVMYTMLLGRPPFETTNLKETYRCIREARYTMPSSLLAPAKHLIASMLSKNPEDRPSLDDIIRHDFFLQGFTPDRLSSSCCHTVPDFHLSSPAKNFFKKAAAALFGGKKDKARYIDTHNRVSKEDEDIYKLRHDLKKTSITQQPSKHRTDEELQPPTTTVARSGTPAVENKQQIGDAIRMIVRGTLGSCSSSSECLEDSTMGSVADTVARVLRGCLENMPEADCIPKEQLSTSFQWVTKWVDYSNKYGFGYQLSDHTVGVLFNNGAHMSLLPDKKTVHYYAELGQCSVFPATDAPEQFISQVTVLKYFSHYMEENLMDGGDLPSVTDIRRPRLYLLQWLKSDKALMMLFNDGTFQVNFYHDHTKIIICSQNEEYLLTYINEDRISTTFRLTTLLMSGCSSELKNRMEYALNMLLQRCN
T2 sequence (P53350 whole entry): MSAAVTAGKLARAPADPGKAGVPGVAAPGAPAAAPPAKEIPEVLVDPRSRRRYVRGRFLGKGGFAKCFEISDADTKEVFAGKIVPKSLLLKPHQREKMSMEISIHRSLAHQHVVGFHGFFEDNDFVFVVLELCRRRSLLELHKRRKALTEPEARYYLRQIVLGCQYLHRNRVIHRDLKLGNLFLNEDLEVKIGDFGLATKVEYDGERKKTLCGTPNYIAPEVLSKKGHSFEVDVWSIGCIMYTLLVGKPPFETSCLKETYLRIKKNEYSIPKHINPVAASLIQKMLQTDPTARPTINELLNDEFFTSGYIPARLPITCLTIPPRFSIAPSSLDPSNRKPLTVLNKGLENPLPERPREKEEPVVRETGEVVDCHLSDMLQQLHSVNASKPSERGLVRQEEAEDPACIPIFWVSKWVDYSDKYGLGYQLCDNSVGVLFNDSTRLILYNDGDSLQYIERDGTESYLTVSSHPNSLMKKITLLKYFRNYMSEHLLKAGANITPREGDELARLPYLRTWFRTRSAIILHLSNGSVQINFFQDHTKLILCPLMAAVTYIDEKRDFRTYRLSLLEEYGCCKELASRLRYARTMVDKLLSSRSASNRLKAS
Procedure for PLK1: PLK1 inhibition was determined using the Z-Lyte assay kit from Invitrogen (cat#PV3802). The assay was performed using the recommended manufacturer's instructions with 25 μM ATP and 8 nM PLK1 (Invitrogen cat #PV3501). The % inhibition values were determined according to the manufacturer's directions and IC50 values were obtained using a non-linear 4 point logistic curve fit (XLfit4, IDBS)

In the case of `C[C@@H]1CN(Cc2ccc(/C=C/c3n[nH]c4cc([C@@H]5C[C@@]56C(=O)Nc5ccccc56)ccc34)cc2)C[C@H](C)O1` [Compound 38], the inhibition (as a rule, how much of the control response was suppressed) at 10 µM on Aurora A is above 50%.

Turning to `O=C1Nc2ccccc2C1=Cc1ccc2c(/C=C/c3ccccn3)n[nH]c2c1` [Compound 9], in the assay with AMPKalpha, the % Inhibition (as a rule, the change of the read-out against control, counted positive when it falls) at 10 μM Concentration was determined as 81%. Moreover, the IC50 (commonly the concentration that inhibits the measured activity by half) at FGFR1 was below 5 µM.

Turning to `CN(C)Cc1ccc(/C=C/c2n[nH]c3cc([C@@H]4C[C@@]45C(=O)Nc4ccccc45)ccc23)cc1` (racemic) [Compound 5], the inhibition at 10 µM on PLK1 and on PLK2 was below 50% each time.

Take `COc1ccc2c(c1)C1(CC1c1ccc3c(I)n[nH]c3c1)C(=O)N2` (centres unmarked) [Compound 12]: the concentration for half-maximal inhibition (IC50) on human PLK4 is below 5 µM.

`COc1ccc2c(c1)/C(=C\c1ccc3c(/C=C/c4ccc(CN(C)C)cc4)n[nH]c3c1)C(=O)N2` [Compound 1]: at human PLK4, the IC50 was below 5 µM.

On to `O=C1Nc2ccccc2[C@@]12C[C@@H]2c1ccc2c(/C=C/c3ccncc3)n[nH]c2c1` (racemic) [Compound 6], for which the GI50 (usually the concentration giving 50% growth inhibition) in assay [1] was below 5 µM; in [2], below 5 µM; in assay [3], 5 to 20 µM; in [4], below 5 µM; in assay [5] it was below 5 µM; in assay [6], below 5 µM. Besides, the inhibition at 10 µM at PLK2 is below 50%.

For `COc1ccc2c(c1)[C@]1(C[C@H]1c1ccc3c(/C=C/c4ccc(CN5CCOCC5)cc4)n[nH]c3c1)C(=O)N2C` [Compound 36], the inhibition at 10 µM at Aurora A is above 50%. Besides, at Aurora B, the IC50 was below 5 µM.

In the case of `O=C1Nc2ccccc2/C1=C\c1ccc2cn[nH]c2c1` [Compound 26], the “% Inhibition at 10 μM Concentration” value with AMPKalpha is given as 54%.

Regarding `Cc1ncsc1/C=C/c1n[nH]c2cc(/C=C3/C(=O)Nc4ccccc43)ccc12` [Compound 10], the IC50 at human PLK4 and at Aurora B was below 5 µM throughout.

As to `O=C1Nc2ccccc2/C1=C\c1ccc2c(/C=C/c3ccncc3)n[nH]c2c1` [Compound 28], the IC50 at FGFR1 is below 5 µM.

On to `O=C1Nc2ccccc2/C1=C\c1ccc2[nH]nnc2c1` [Compound 24], for which the “% Inhibition at 10 μM Concentration” value with AMPKalpha is on record as 15%.

As to `O=C1Nc2ccccc2[C@@]12C[C@@H]2c1ccc2cn[nH]c2c1` (racemic) [Compound 40], the IC50 on PLK2 (read-out: IC50 Ranges PLK2) is above 50 µM.

With `O=C1Nc2ccccc2/C1=C\c1ccc2c(/C=C/c3ccccc3Cl)n[nH]c2c1` [Compound 29], the “% Inhibition at 10 μM Concentration” value with AMPKalpha is 8%.

`COc1ccc2c(c1)/C(=C\c1ccc3c(-c4ccc(N(C)C)nc4)n[nH]c3c1)C(=O)N2` [Compound 11]: the IC50 at Aurora A (read-out: IC50 Ranges Aurora A), at human PLK4 and on Aurora B was below 5 µM throughout.

Consider `COc1ccc2c(c1)C(=Cc1ccc3c(-c4ccc(N5CCN(C)CC5)nc4)n[nH]c3c1)C(=O)N2` [Compound 31], for which the “% Inhibition at 10 μM Concentration” value with AMPKalpha is on record as 76%. The IC50 on FGFR1 was below 5 µM.

On to `CN(C)Cc1ccc(/C=C/c2n[nH]c3cc(C=C4C(=O)Nc5ccccc54)ccc23)cc1` [Compound 39], for which the inhibition at 10 µM at PLK1 is below 50%; at Aurora A, above 50%. The IC50 at FGFR1 was below 5 µM.

`COc1ccc2c(c1)[C@]1(C[C@H]1c1ccc3c(/C=C/c4ccc(CN5C[C@@H](C)O[C@@H](C)C5)cc4)n[nH]c3c1)C(=O)N2` [Compound 37]: the inhibition at 10 µM at Aurora A was above 50%.
